Tests used:
Test in all cases: radiometric filter-binding kinase assay, Kinase HotSpot
Conditions in all cases: compound 0.5 µM; ATP 10 µM
ACVR1 (human) = ACVR1 (human) (UniProt Q04771)
ACVRL1 (human) = ACVRL1 (human) (UniProt P37023)
AURKB (human) = AURKB (human) (UniProt Q96GD4)
CAMK1 (human) = CAMK1 (human) (UniProt Q14012)
CDK4 CCND1 (human) = CDK4 CCND1 (human) (UniProt P24385+P11802)
CDK5 CDK5R1 p25 (human) = CDK5 CDK5R1 p25 (human) (UniProt Q00535+Q15078)
CLK1 (human) = CLK1 (human) (UniProt P49759)
CSNK1G2 (human) = CSNK1G2 (human) (UniProt P78368)
DYRK4 (human) = DYRK4 (human) (UniProt Q9NR20)
EPHA5 (human) = EPHA5 (human) (UniProt P54756)
EPHB1 (human) = EPHB1 (human) (UniProt P54762)
EPHB3 (human) = EPHB3 (human) (UniProt P54753)
HIPK2 (human) = HIPK2 (human) (UniProt Q9H2X6)
IKBKE (human) = IKBKE (human) (UniProt Q14164)
JAK3 JH1 JH2 (human) = JAK3 JH1 JH2 (human) (UniProt P52333)
MAP2K2 (human) = MAP2K2 (human) (UniProt P36507)
MAP3K14 (human) = MAP3K14 (human) (UniProt Q99558)
MAP3K2 (human) = MAP3K2 (human) (UniProt Q9Y2U5)
MAP3K3 (human) = MAP3K3 (human) (UniProt Q99759)
MAP3K7 TAB1 (human) = MAP3K7 TAB1 (human) (UniProt O43318+Q15750)
MAP4K4 (human) = MAP4K4 (human) (UniProt O95819)
MAP4K5 (human) = MAP4K5 (human) (UniProt Q9Y4K4)
MAPK10 (human) = MAPK10 (human) (UniProt P53779)
MARK3 (human) = MARK3 (human) (UniProt P27448)
MINK1 (human) = MINK1 (human) (UniProt Q8N4C8)
PIM1 (human) = PIM1 (human) (UniProt P11309)
PLK3 (human) = PLK3 (human) (UniProt Q9H4B4)
PRKCA (human) = PRKCA (human) (UniProt P17252)
PRKCB2 (human) = PRKCB2 (human) (UniProt P05771)
PRKCH (human) = PRKCH (human) (UniProt P24723)
PRKX (human) = PRKX (human) (UniProt P51817)
PTK6 (human) = PTK6 (human) (UniProt Q13882)
[1] = system: SGK1 (human), O00141 [S422D]
SLK (human) = SLK (human) (UniProt Q9H2G2)
SRPK1 (human) = SRPK1 (human) (UniProt Q96SB4)
SRPK3 (human) = SRPK3 (human) (UniProt Q9UPE1)
STK16 (human) = STK16 (human) (UniProt O75716)
TBK1 (human) = TBK1 (human) (UniProt Q9UHD2)
TEC (human) = TEC (human) (UniProt P42680)
TTK (human) = TTK (human) (UniProt P33981)
TYRO3 (human) = TYRO3 (human) (UniProt Q06418)
WNK3 (human) = WNK3 (human) (UniProt Q9BYP7)

Sequence of DYRK4 (human) (Q9NR20 whole entry, looked up): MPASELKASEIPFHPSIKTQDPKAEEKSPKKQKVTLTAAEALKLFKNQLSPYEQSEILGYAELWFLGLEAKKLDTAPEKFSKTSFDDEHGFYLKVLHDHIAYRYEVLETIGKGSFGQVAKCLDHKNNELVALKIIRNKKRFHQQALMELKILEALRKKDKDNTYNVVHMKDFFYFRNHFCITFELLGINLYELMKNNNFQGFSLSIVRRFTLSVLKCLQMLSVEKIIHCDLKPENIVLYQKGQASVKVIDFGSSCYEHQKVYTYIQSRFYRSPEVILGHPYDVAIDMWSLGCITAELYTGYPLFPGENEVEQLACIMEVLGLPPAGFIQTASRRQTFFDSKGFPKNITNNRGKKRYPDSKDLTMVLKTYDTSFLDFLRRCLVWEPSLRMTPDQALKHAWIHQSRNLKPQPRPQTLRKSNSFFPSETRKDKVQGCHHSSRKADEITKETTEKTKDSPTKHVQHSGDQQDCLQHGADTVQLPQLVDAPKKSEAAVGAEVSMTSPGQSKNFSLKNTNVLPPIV
Sequence of EPHA5 (human) (P54756 whole entry, looked up): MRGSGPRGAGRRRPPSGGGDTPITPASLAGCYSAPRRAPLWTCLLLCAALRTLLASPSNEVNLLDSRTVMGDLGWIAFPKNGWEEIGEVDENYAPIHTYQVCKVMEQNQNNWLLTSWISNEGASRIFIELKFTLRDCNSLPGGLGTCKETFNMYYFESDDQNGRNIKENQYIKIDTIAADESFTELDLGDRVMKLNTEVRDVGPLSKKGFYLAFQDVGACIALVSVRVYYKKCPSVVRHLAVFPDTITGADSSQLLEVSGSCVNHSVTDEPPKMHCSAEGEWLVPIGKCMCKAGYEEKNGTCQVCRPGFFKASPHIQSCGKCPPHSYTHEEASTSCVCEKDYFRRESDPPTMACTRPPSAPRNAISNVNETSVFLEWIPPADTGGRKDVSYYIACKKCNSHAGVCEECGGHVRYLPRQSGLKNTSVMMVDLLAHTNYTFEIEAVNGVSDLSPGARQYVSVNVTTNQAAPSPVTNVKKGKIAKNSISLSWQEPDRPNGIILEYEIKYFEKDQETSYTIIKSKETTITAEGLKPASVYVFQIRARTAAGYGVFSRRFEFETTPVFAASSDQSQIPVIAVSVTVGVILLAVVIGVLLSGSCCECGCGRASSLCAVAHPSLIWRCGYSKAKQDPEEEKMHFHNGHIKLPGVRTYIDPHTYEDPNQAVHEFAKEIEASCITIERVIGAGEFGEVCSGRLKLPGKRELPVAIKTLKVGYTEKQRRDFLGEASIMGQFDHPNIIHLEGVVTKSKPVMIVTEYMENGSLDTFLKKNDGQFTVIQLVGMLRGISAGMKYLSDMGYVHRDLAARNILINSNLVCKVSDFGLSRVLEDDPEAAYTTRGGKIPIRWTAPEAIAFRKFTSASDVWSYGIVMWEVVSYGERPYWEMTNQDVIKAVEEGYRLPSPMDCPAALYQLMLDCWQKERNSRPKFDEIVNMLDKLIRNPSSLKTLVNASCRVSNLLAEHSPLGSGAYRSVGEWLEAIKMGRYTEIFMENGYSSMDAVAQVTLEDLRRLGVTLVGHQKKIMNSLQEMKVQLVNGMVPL
Sequence of MAPK10 (human) (P53779 whole entry, looked up): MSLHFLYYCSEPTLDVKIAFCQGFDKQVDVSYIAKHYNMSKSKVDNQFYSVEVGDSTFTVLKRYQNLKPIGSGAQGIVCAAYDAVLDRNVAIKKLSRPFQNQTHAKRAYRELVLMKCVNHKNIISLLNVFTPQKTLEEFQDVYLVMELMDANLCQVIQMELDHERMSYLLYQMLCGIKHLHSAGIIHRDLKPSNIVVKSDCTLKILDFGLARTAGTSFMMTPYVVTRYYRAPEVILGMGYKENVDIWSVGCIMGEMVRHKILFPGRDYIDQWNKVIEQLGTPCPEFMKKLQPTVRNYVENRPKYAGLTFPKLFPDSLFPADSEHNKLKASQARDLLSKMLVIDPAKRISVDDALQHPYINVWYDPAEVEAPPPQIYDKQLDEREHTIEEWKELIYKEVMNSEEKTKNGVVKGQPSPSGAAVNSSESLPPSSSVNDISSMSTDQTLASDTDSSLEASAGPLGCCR
Sequence of MAP4K4 (human) (O95819 whole entry, looked up): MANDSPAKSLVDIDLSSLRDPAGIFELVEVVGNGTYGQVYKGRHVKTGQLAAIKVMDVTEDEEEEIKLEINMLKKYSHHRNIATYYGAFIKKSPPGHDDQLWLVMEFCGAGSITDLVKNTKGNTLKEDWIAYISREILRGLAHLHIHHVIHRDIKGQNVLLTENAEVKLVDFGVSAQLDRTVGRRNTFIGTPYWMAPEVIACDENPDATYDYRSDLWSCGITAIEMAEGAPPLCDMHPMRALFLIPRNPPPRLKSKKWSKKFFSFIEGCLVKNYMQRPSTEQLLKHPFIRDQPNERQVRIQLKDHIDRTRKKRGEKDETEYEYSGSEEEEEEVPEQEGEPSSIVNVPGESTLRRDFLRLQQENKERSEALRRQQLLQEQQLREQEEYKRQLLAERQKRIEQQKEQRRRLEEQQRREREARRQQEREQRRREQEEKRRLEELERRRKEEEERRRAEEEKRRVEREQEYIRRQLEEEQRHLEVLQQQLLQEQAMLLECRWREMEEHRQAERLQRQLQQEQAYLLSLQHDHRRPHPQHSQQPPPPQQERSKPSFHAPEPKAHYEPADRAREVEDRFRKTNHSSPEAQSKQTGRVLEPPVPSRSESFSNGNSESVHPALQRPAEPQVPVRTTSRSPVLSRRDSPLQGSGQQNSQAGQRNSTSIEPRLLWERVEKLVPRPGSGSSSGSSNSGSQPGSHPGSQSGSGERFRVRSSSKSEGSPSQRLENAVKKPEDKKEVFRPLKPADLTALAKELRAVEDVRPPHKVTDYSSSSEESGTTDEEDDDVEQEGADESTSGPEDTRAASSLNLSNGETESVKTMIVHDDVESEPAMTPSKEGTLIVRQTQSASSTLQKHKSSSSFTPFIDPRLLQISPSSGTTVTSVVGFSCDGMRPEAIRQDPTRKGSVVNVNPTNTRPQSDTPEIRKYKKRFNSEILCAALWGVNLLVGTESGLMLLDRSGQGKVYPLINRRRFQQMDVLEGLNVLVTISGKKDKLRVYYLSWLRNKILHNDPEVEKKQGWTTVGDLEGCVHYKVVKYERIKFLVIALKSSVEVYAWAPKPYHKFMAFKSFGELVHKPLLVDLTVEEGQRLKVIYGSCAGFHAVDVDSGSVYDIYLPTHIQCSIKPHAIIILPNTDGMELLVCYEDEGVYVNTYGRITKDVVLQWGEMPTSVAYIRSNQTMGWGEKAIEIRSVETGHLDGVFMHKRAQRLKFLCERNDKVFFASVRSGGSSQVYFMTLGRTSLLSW
Sequence of SRPK3 (human) (Q9UPE1 whole entry, looked up): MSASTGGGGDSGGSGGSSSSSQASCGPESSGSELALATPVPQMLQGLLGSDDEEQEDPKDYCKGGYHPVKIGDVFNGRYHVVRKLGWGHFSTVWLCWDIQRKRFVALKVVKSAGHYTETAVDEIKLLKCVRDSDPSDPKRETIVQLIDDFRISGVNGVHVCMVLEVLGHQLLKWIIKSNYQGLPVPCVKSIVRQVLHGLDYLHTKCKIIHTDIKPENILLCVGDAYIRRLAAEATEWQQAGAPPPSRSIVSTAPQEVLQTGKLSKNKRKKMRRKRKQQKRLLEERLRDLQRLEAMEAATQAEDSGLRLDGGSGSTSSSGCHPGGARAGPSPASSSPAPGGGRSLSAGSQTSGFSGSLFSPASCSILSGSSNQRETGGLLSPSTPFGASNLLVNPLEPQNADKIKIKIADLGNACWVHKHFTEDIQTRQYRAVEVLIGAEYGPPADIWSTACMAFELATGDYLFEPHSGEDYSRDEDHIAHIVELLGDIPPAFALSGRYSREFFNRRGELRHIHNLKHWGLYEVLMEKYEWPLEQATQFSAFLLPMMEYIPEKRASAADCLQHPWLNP
Sequence of ACVR1 (human) (Q04771 whole entry, looked up): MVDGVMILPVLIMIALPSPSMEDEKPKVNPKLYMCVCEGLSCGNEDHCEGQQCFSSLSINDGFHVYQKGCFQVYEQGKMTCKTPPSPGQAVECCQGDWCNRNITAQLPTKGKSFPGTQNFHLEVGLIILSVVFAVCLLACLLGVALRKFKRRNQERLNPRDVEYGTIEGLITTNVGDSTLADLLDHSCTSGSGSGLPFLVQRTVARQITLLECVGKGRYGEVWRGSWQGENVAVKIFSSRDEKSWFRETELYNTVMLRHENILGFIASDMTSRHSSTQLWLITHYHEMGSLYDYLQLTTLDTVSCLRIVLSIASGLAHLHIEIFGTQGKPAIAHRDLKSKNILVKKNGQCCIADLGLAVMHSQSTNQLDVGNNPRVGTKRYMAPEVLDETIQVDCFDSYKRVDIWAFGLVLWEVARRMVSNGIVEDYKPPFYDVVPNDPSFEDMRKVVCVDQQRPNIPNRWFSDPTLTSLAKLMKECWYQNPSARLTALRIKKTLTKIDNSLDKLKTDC
Sequence of CAMK1 (human) (Q14012 whole entry, looked up): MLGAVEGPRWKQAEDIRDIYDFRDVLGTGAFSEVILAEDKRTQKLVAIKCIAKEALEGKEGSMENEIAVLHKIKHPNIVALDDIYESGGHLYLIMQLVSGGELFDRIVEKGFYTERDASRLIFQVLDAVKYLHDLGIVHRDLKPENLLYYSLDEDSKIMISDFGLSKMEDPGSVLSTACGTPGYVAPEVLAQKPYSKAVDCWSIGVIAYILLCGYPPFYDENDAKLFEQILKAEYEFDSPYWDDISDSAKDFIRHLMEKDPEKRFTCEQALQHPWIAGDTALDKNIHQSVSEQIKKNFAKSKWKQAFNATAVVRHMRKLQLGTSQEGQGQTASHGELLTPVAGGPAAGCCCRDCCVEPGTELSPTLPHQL
Sequence of PIM1 (human) (P11309 whole entry, looked up): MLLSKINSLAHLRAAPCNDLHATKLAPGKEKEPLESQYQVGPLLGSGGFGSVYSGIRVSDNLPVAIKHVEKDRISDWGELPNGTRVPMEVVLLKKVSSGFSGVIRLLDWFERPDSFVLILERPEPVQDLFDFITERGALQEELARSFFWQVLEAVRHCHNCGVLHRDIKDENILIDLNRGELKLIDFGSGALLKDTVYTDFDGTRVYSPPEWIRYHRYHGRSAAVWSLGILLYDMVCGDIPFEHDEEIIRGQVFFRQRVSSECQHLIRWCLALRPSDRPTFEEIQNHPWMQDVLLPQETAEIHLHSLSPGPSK

SMILES: N#CCCc1ccc2c(c1)-c1[nH]c3ccc([N+](=O)[O-])cc3c1CC(=O)N2
- residual activity (ACVR1 (human)): 58.8%
- residual activity (ACVRL1 (human)): 53.6%
- residual activity (AURKB (human)): 80%
- residual activity (CAMK1 (human)): 96%
- residual activity (CDK4 CCND1 (human)): 11.8%
- residual activity (CDK5 CDK5R1 p25 (human)): 5.79%
- residual activity (CLK1 (human)): 99.6%
- residual activity (CSNK1G2 (human)): 84.8%
- residual activity (DYRK4 (human)): 100%
- residual activity (EPHA5 (human)): 88.5%
- residual activity (EPHB1 (human)): 99.1%
- residual activity (EPHB3 (human)): 102%
- residual activity (HIPK2 (human)): 106%
- residual activity (IKBKE (human)): 89.2%
- residual activity (JAK3 JH1 JH2 (human)): 101%
- residual activity (MAP2K2 (human)): 90.3%
- residual activity (MAP3K14 (human)): 161%
- residual activity (MAP3K2 (human)): 61.5%
- residual activity (MAP3K3 (human)): 83.3%
- residual activity (MAP3K7 TAB1 (human)): 38.1%
- residual activity (MAP4K4 (human)): 6.82%
- residual activity (MAP4K5 (human)): 7.61%
- residual activity (MAPK10 (human)): 93.3%
- residual activity (MARK3 (human)): 67.3%
- residual activity (MINK1 (human)): 29.9%
- residual activity (PIM1 (human)): 93.6%
- residual activity (PLK3 (human)): 99.7%
- residual activity (PRKCA (human)): 80.9%
- residual activity (PRKCB2 (human)): 76.3%
- residual activity (PRKCH (human)): 99.4%
- residual activity (PRKX (human)): 78.4%
- residual activity (PTK6 (human)): 94.6%
- residual activity [1]: 87.9%
- residual activity (SLK (human)): 87.2%
- residual activity (SRPK1 (human)): 107%
- residual activity (SRPK3 (human)): 94.6%
- residual activity (STK16 (human)): 87%
- residual activity (TBK1 (human)): 83.7%
- residual activity (TEC (human)): 120%
- residual activity (TTK (human)): 71.7%
- residual activity (TYRO3 (human)): 94.8%
- residual activity (WNK3 (human)): 96.5%

SMILES: O=C(O)c1ccc2c3c1cccc3c(=O)n1c3ccccc3nc21
- residual activity (ACVR1 (human)): 91.1%
- residual activity (ACVRL1 (human)): 103%
- residual activity (AURKB (human)): 82.5%
- residual activity (CAMK1 (human)): 101%
- residual activity (CDK4 CCND1 (human)): 106%
- residual activity (CDK5 CDK5R1 p25 (human)): 80.6%
- residual activity (CLK1 (human)): 93.8%
- residual activity (CSNK1G2 (human)): 93.5%
- residual activity (DYRK4 (human)): 95.9%
- residual activity (EPHA5 (human)): 94.2%
- residual activity (EPHB1 (human)): 97.5%
- residual activity (EPHB3 (human)): 94.5%
- residual activity (HIPK2 (human)): 101%
- residual activity (IKBKE (human)): 57.3%
- residual activity (JAK3 JH1 JH2 (human)): 46.9%
- residual activity (MAP2K2 (human)): 105%
- residual activity (MAP3K14 (human)): 94.8%
- residual activity (MAP3K2 (human)): 90.7%
- residual activity (MAP3K3 (human)): 81%
- residual activity (MAP3K7 TAB1 (human)): 74.4%
- residual activity (MAP4K4 (human)): 43.4%
- residual activity (MAP4K5 (human)): 47%
- residual activity (MAPK10 (human)): 108%
- residual activity (MARK3 (human)): 82.6%
- residual activity (MINK1 (human)): 79.8%
- residual activity (PIM1 (human)): 59.5%
- residual activity (PLK3 (human)): 93.9%
- residual activity (PRKCA (human)): 101%
- residual activity (PRKCB2 (human)): 97%
- residual activity (PRKCH (human)): 100%
- residual activity (PRKX (human)): 93.7%
- residual activity (PTK6 (human)): 91.1%
- residual activity [1]: 102%
- residual activity (SLK (human)): 94.1%
- residual activity (SRPK1 (human)): 96.1%
- residual activity (SRPK3 (human)): 82.8%
- residual activity (STK16 (human)): 106%
- residual activity (TBK1 (human)): 20.2%
- residual activity (TEC (human)): 123%
- residual activity (TTK (human)): 81%
- residual activity (TYRO3 (human)): 102%
- residual activity (WNK3 (human)): 95.8%

SMILES: CCc1nc(-c2ccc(OC)cc2)[nH]c1-c1ccncc1
- residual activity (ACVR1 (human)): 95.8%
- residual activity (ACVRL1 (human)): 101%
- residual activity (AURKB (human)): 101%
- residual activity (CAMK1 (human)): 108%
- residual activity (CDK4 CCND1 (human)): 107%
- residual activity (CDK5 CDK5R1 p25 (human)): 95.9%
- residual activity (CLK1 (human)): 105%
- residual activity (CSNK1G2 (human)): 97.7%
- residual activity (DYRK4 (human)): 100%
- residual activity (EPHA5 (human)): 100%
- residual activity (EPHB1 (human)): 104%
- residual activity (EPHB3 (human)): 107%
- residual activity (HIPK2 (human)): 93.6%
- residual activity (IKBKE (human)): 99.8%
- residual activity (JAK3 JH1 JH2 (human)): 96.1%
- residual activity (MAP2K2 (human)): 105%
- residual activity (MAP3K14 (human)): 118%
- residual activity (MAP3K2 (human)): 98.2%
- residual activity (MAP3K3 (human)): 99%
- residual activity (MAP3K7 TAB1 (human)): 96.6%
- residual activity (MAP4K4 (human)): 91.9%
- residual activity (MAP4K5 (human)): 106%
- residual activity (MAPK10 (human)): 100%
- residual activity (MARK3 (human)): 101%
- residual activity (MINK1 (human)): 103%
- residual activity (PIM1 (human)): 104%
- residual activity (PLK3 (human)): 96.9%
- residual activity (PRKCA (human)): 107%
- residual activity (PRKCB2 (human)): 109%
- residual activity (PRKCH (human)): 93%
- residual activity (PRKX (human)): 93.3%
- residual activity (PTK6 (human)): 88.5%
- residual activity [1]: 104%
- residual activity (SLK (human)): 99.7%
- residual activity (SRPK1 (human)): 106%
- residual activity (SRPK3 (human)): 102%
- residual activity (STK16 (human)): 108%
- residual activity (TBK1 (human)): 99.7%
- residual activity (TEC (human)): 109%
- residual activity (TTK (human)): 105%
- residual activity (TYRO3 (human)): 97.9%
- residual activity (WNK3 (human)): 97.3%

SMILES: O=c1c(-c2ccc(F)cc2)c(-c2ccncc2)[nH]n1-c1ccc(Cl)cc1
- residual activity (ACVR1 (human)): 91.7%
- residual activity (ACVRL1 (human)): 88.1%
- residual activity (AURKB (human)): 95.1%
- residual activity (CAMK1 (human)): 94.4%
- residual activity (CDK4 CCND1 (human)): 102%
- residual activity (CDK5 CDK5R1 p25 (human)): 76.3%
- residual activity (CLK1 (human)): 97%
- residual activity (CSNK1G2 (human)): 93.8%
- residual activity (DYRK4 (human)): 81.5%
- residual activity (EPHA5 (human)): 106%
- residual activity (EPHB1 (human)): 90.5%
- residual activity (EPHB3 (human)): 92.2%
- residual activity (HIPK2 (human)): 89%
- residual activity (IKBKE (human)): 98.3%
- residual activity (JAK3 JH1 JH2 (human)): 106%
- residual activity (MAP2K2 (human)): 82.5%
- residual activity (MAP3K14 (human)): 102%
- residual activity (MAP3K2 (human)): 98.9%
- residual activity (MAP3K3 (human)): 96.2%
- residual activity (MAP3K7 TAB1 (human)): 100%
- residual activity (MAP4K4 (human)): 93.5%
- residual activity (MAP4K5 (human)): 83.1%
- residual activity (MAPK10 (human)): 97.1%
- residual activity (MARK3 (human)): 87.2%
- residual activity (MINK1 (human)): 97.3%
- residual activity (PIM1 (human)): 101%
- residual activity (PLK3 (human)): 96.3%
- residual activity (PRKCA (human)): 100%
- residual activity (PRKCB2 (human)): 92.4%
- residual activity (PRKCH (human)): 89%
- residual activity (PRKX (human)): 97%
- residual activity (PTK6 (human)): 57.5%
- residual activity [1]: 97.3%
- residual activity (SLK (human)): 98.2%
- residual activity (SRPK1 (human)): 97.9%
- residual activity (SRPK3 (human)): 92.2%
- residual activity (STK16 (human)): 100%
- residual activity (TBK1 (human)): 112%
- residual activity (TEC (human)): 112%
- residual activity (TTK (human)): 110%
- residual activity (TYRO3 (human)): 105%
- residual activity (WNK3 (human)): 93.6%
